Reference: patent publication EP1585727B1, “INDOLES USEFUL IN THE TREATMENT OF ANDROGEN-RECEPTOR RELATED DISEASES” (priority 2002, dated 2004)

Each compound was assayed against T1, human androgen receptor (Homo sapiens, UniProt P10275) (assay: Androgen receptor transactivation assay, antiandrogenic activity: inhibition of transactivation in the presence of 1 nM DHT (CHO-AR-pMMTV-LUC cells; Table 4)). Conditions: antiandrogenic activity, in the presence of 1 nM DHT; read-out: ant EC50.
T1 construct: expressed in transfected cells; host or cells: Chinese hamster ovary (CHO) cells, cell line CHO-AR-pMMTV-LUC 1G12-A5-CA
T1 sequence (P10275 1-920): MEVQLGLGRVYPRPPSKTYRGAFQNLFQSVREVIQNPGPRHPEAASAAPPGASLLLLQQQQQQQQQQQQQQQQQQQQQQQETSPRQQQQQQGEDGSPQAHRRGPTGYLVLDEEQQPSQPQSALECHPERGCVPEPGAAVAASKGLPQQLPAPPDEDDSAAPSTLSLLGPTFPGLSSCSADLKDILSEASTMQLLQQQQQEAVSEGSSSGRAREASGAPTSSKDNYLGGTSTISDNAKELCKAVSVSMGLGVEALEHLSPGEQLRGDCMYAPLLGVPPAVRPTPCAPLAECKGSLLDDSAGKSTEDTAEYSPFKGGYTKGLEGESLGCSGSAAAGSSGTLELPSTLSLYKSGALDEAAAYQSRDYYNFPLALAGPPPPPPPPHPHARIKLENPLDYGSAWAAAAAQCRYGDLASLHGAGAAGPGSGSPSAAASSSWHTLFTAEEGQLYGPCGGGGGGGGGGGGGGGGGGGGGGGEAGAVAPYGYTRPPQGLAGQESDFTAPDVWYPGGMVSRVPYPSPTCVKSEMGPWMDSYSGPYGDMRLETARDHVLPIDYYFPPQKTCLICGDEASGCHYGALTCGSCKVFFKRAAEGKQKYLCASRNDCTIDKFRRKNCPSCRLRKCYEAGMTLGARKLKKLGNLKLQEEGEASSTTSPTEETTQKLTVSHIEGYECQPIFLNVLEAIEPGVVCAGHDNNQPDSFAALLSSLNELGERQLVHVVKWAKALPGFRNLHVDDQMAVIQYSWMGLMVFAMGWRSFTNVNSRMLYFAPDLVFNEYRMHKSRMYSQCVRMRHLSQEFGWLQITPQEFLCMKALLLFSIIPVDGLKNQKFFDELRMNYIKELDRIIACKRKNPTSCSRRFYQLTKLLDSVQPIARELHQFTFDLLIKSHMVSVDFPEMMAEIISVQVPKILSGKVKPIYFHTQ
Type: cell-based
Procedure: Compounds were tested for their Androgen Receptor activity in a transactivation assay and in a binding assay.
The (anti-)androgenic activity of test compounds (EC50 and intrinsic activity) was determined in an in vitro bioassay of Chinese hamster ovary (CHO) cells stably transfected with the human androgen receptor expression plasmid and a reporter plasmid in which the MMTV-promoter is linked to the luciferase reporter gene. The cell-line CHO-AR-pMMTV-LUC 1G12-AS-CA is described in Schoonen et al. (2000), Journal of Steroid Biochemistry and Molecular Biology 74(4):213-222. The antiandrogenic activity of a test compound was determined by the inhibition of the transactivation via the androgen receptor of the enzyme luciferase in the presence of 1 nM DHT (5 α-dihydrotestosterone, 17β-hydroxy-5α-androstan-3-one). Intrinsic activity of antiandrogenic activity was determined in the presence of the reference antiandrogen 2-Hydroxy-2-methyl-N-(4-nitro-3-trifluoromethyl-phenyl)-propionamide (Hydroxyflutamide), and set at 100%. For androgenic activity, maximal intrinsic activity in the presence of 100 nM DHT was set at 100%. Table 4 Androgen receptor activity

`O=[N+]([O-])c1ccccc1Sc1cn(Cc2cc(F)cc(F)c2)c2cc(O)ccc12` [Compound 61, 1-(3,5-Difluoro-benzyl)-3-(2-nitro-phenylsulfanyl)-1H-indol-6-ol] and `COc1ccc2c(Sc3ccccc3[N+](=O)[O-])cn(Cc3c(C)noc3C)c2c1` [Compound 80] cannot be ordered by EC50: greater than 10 µM for the first, greater than 10 µM for the second.

Same assay, conditions: in the presence of 1 nM DHT; intrinsic activity relative to reference antiandrogen Hydroxyflutamide (set at 100%); read-out: ant efficacy

`O=[N+]([O-])c1ccccc1Sc1cn(Cc2cc(F)cc(F)c2)c2ccc(F)cc12` [Compound 53] and `Nc1ccc2c(Sc3ccccc3[N+](=O)[O-])cn(Cc3cc(F)cc(F)c3)c2c1` [Compound 57, 1-(3,5-Difluoro-benzyl)-3-(2-nitro-phenylsulfanyl)-1H-indol-6-ylamine] cannot be ordered by Emax: less than 20% for the first, less than 20% for the second.

`O=[N+]([O-])c1ccccc1Sc1cn(Cc2cc(F)cc(F)c2)c2cccc(Cl)c12` [Compound 54] and `Cc1cccc2c1c(Sc1ccccc1[N+](=O)[O-])cn2Cc1cc(F)cc(F)c1` [Compound 55] cannot be ordered by Emax: less than 20% for the first, less than 20% for the second.

`CC(=O)Nc1ccc2c(Sc3ccccc3[N+](=O)[O-])cn(Cc3cc(F)cc(F)c3)c2c1` [Compound 58, N-[1-(3,5-Difluoro-benzyl)-3-(2-nitro-phenylsulfanyl)-1H-indol-6-yl]-acetamide] and `O=C(Nc1ccc2c(Sc3ccccc3[N+](=O)[O-])cn(Cc3cc(F)cc(F)c3)c2c1)C(F)(F)F` [Compound 59, N-[1-(3,5-Difluoro-benzyl)-3-(2-nitro-phenylsulfanyl)-1H-indol-6-yl]-2,2,2-trifluoroacetamide] cannot be ordered by Emax: less than 20% for the first, less than 20% for the second.

`O=[N+]([O-])c1ccccc1Sc1cn(Cc2cc(F)cc(F)c2)c2cc(O)ccc12` [Compound 61, 1-(3,5-Difluoro-benzyl)-3-(2-nitro-phenylsulfanyl)-1H-indol-6-ol] and `COc1ccc2c(Sc3ccccc3[N+](=O)[O-])cn(Cc3cc(F)cc(F)c3)c2c1` [Compound 63, 1-(3,5-Difluoro-benzyl)-6-methoxy-3-(2-nitro-phenylsulfanyl)-1H-indole] cannot be ordered by Emax: less than 20% for the first, less than 20% for the second.

First: COc1ccc2c(S(=O)(=O)c3ccccc3[N+](=O)[O-])cn(Cc3cc(F)cc(F)c3)c2c1 [Compound 62, 1-(3,5-Difluoro-benzyl)-6-methoxy-3-(2-nitro-benzenesulfonyl)-1H-indole]
Second: COc1ccc2c([S+]([O-])c3ccccc3[N+](=O)[O-])cn(Cc3cc(F)cc(F)c3)c2c1 (stereo not shown) [Compound 64, 1-(3,5-Difluoro-benzyl)-6-methoxy-3-(2-nitro-benzenesulfinyl)-1H-indole]
The Emax of the first is lower: less than 20% for the first, 50 to 80% for the second.

First: COc1ccc2c(Sc3ccccn3)cn(Cc3cc(F)cc(F)c3)c2c1 [Compound 65, 1-(3,5-Difluoro-benzyl)-6-methoxy-3-(pyridin-2-ylsulfanyl)-1H-indole]
Second: COc1ccc2c(Sc3cccc[n+]3[O-])cn(Cc3cc(F)cc(F)c3)c2c1 [Compound 66]
The Emax of the first is lower: less than 20% for the first, 20 to 50% for the second.

`COc1ccc2c(Sc3ccccc3[N+](=O)[O-])cn(Cc3cccc(Cl)c3)c2c1` [Compound 67] and `COc1ccc2c(Sc3ccccc3[N+](=O)[O-])cn(Cc3cccc(F)c3)c2c1` [Compound 71] cannot be ordered by Emax: less than 20% for the first, less than 20% for the second.

`COc1ccc2c(Sc3ccccc3[N+](=O)[O-])cn(Cc3cccc(C#N)c3)c2c1` [Compound 68] and `COc1ccc2c(Sc3ccccc3[N+](=O)[O-])cn(Cc3cccc(C)c3)c2c1` [Compound 73] cannot be ordered by Emax: less than 20% for the first, less than 20% for the second.

`COc1ccc2c(Sc3ccccc3[N+](=O)[O-])cn(Cc3cc(F)cc(C(F)(F)F)c3)c2c1` [Compound 69] and `COc1ccc2c(Sc3ccccc3[N+](=O)[O-])cn(Cc3cccc(C(F)(F)F)c3)c2c1` [Compound 78] cannot be ordered by Emax: less than 20% for the first, less than 20% for the second.

`COc1ccc2c(Sc3ccccc3[N+](=O)[O-])cn(Cc3cc(F)ccc3C(F)(F)F)c2c1` [Compound 70] and `COc1ccc2c(Sc3ccccc3[N+](=O)[O-])cn(Cc3ccc(Cl)c(C(F)(F)F)c3)c2c1` [Compound 76] cannot be ordered by Emax: less than 20% for the first, less than 20% for the second.

Going from `COc1cccc(Cn2cc(Sc3ccccc3[N+](=O)[O-])c3ccc(OC)cc32)c1` [Compound 72] to `COc1ccc(Cn2cc(Sc3ccccc3[N+](=O)[O-])c3ccc(OC)cc32)cc1` [Compound 84], the Emax rises from less than 20% to greater than 80%.

First: COc1ccc2c(Sc3ccccc3[N+](=O)[O-])cn(Cc3cccnc3)c2c1 [Compound 75]
Second: COc1ccc2c(Sc3ccccc3[N+](=O)[O-])cn(Cc3ccc(Cl)cc3)c2c1 [Compound 81]
The Emax of the first is lower: less than 20% for the first, 50 to 80% for the second.

`COc1ccc2c(Sc3ccccc3[N+](=O)[O-])cn(Cc3cccc(OC(F)(F)F)c3)c2c1` [Compound 77] and `COc1ccc2c(Sc3ccccc3[N+](=O)[O-])cn(Cc3ccc(F)cc3)c2c1` [Compound 83] cannot be ordered by Emax: less than 20% for the first, less than 20% for the second.

`COc1ccc2c(Sc3ccccc3[N+](=O)[O-])cn(Cc3csc(C)n3)c2c1` [Compound 79] and `COc1ccc2c(Sc3ccccc3[N+](=O)[O-])cn(Cc3cnc(Cl)s3)c2c1` [Compound 87] cannot be ordered by Emax: less than 20% for the first, less than 20% for the second.

Compared with `COc1ccc2c(Sc3ccccc3[N+](=O)[O-])cn(Cc3c(C)noc3C)c2c1` [Compound 80], `COc1ccc2c(Sc3ccccc3[N+](=O)[O-])cn(Cc3ccc(Cl)s3)c2c1` [Compound 88] is lower in Emax: 20 to 50% for the first, less than 20% for the second.

First: COc1ccc2c(Sc3ccccc3[N+](=O)[O-])cn(Cc3ccc(C#N)cc3)c2c1 [Compound 82]
Second: COc1ccc2c(Sc3ccccc3[N+](=O)[O-])cn(Cc3ccc(C)cc3)c2c1 [Compound 85]
The Emax of the first is lower: less than 20% for the first, 20 to 50% for the second.

Compared with `O=[N+]([O-])c1ccccc1Sc1cn(Cc2ccccc2)c2ccccc12` [Compound 90], `COc1ccc2c(c1)c(Sc1ccccc1[N+](=O)[O-])cn2Cc1ccccc1` [Compound 91] is higher in Emax: less than 20% for the first, greater than 80% for the second.

Same assay, conditions: read-out: ant efficacy, in the presence of 1 nM DHT; intrinsic activity relative to reference antiandrogen Hydroxyflutamide (set at 100%)

`O=[N+]([O-])c1ccc2c(Sc3ccccc3[N+](=O)[O-])cn(Cc3cc(F)cc(F)c3)c2c1` [Compound 60] and `COc1ccc2c(Sc3ccccc3[N+](=O)[O-])cn(Cc3cccc([N+](=O)[O-])c3)c2c1` [Compound 74] cannot be ordered by Emax: less than 20% for the first, less than 20% for the second.

`COc1ccc2c(Sc3ccccc3[N+](=O)[O-])cn(CC3CCCCC3)c2c1` [Compound 89] showed an Emax of 20 to 50%.

The compounds below were run against T1, human androgen receptor (assay: Androgen receptor transactivation assay, androgenic activity in the presence of 0.1 µmol/l onapristone (CHO-AR-pMMTV-LUC cells; Table 5)). Conditions: maximal intrinsic activity in the presence of 100 nM DHT set at 1.00.
Type: cell-based
Procedure: The androgenic activity (EC50, potency, and efficacy) of the compounds in Table 5 was determined in an in vitro bioassay of Chinese hamster ovary (CHO) cells stably transfected with the human androgen receptor expression plasmid and a reporter plasmid in which the MMTV promotor is linked to the luciferase reporter gene. The cell line CHO-AR-pMMTV-LUC 1G12-A5-CA is described in Schoonen et al. (J. Steroid Biochem. Molec. Biol. […]; 74: 213-222). The androgen receptor activity of compounds was determined in the presence of 0.1 µmol/l onapristone. The maximal efficacy in the presence of 100 nmol/l DHT was set as 100%. The potencies are expressed as percentage of DHT activity. Table 5 Androgen receptor activity

For `COc1ccc2c(Sc3ccccc3[N+](=O)[O-])cn(Cc3ccncc3)c2c1` [Compound 93], the ago efficacy was “+ (between 0.50 and 0.80)”.
With `COc1ccc2c(Sc3ccccc3[N+](=O)[O-])cn(Cc3cc(F)c(F)c(F)c3)c2c1` [Compound 94, 6-Methoxy-3-(2-nitro-phenylsulfanyl)-1-(3,4,5-trifluoro-benzyl)-1H indole] the ago efficacy was “++ (≥0.80)”.
In the case of `COc1ccc2c(Sc3ccccc3[N+](=O)[O-])cn(Cc3cc(F)cc(F)c3F)c2c1` [Compound 95, 6-Methoxy-3-(2-nitro-phenylsulfanyl)-1-(2,3,5-trifluoro-benzyl)-1H-indole], the ago efficacy is reported as “++ (≥0.80)”.
`COc1ccc2c(Sc3ccccc3[N+](=O)[O-])cn(Cc3ccc(Cl)nc3)c2c1` [Compound 96, 1-(6-Chloro-pyridin-3-ylmethyl)-6-methoxy-3-(2-nitro-phenylsulfanyl)-1H-indole] was tested, and the ago efficacy was “± (between 0.20 and 0.50)”.
In the case of `O=C(CF)Nc1ccc2c(Sc3ccccc3[N+](=O)[O-])cn(Cc3cc(F)cc(F)c3)c2c1` [Compound 97, N-[1-(3,5-Difluoro-benzyl)-3-(2-nitro-phenylsulfanyl)-1H-indol-6-yl]-2-fluoro-acetamide], the ago efficacy is reported as “++ (≥0.80)”.

Same assay, conditions: potency expressed as percentage of DHT activity

In the case of `COc1ccc2c(Sc3ccccc3[N+](=O)[O-])cn(Cc3ccncc3)c2c1` [Compound 93], the ago potency is reported as “± (between 0.1 % and 1%)”.
For `COc1ccc2c(Sc3ccccc3[N+](=O)[O-])cn(Cc3cc(F)c(F)c(F)c3)c2c1` [Compound 94, 6-Methoxy-3-(2-nitro-phenylsulfanyl)-1-(3,4,5-trifluoro-benzyl)-1H indole], the ago potency was “+ (between 1% and 5%)”.
`COc1ccc2c(Sc3ccccc3[N+](=O)[O-])cn(Cc3cc(F)cc(F)c3F)c2c1` [Compound 95, 6-Methoxy-3-(2-nitro-phenylsulfanyl)-1-(2,3,5-trifluoro-benzyl)-1H-indole] was tested, and the ago potency was “± (between 0.1 % and 1%)”.
In the case of `COc1ccc2c(Sc3ccccc3[N+](=O)[O-])cn(Cc3ccc(Cl)nc3)c2c1` [Compound 96, 1-(6-Chloro-pyridin-3-ylmethyl)-6-methoxy-3-(2-nitro-phenylsulfanyl)-1H-indole], the ago potency is reported as “± (between 0.1 % and 1%)”.
With `O=C(CF)Nc1ccc2c(Sc3ccccc3[N+](=O)[O-])cn(Cc3cc(F)cc(F)c3)c2c1` [Compound 97, N-[1-(3,5-Difluoro-benzyl)-3-(2-nitro-phenylsulfanyl)-1H-indol-6-yl]-2-fluoro-acetamide] the ago potency was “+ (between 1% and 5%)”.
